Data set [1] concerns the target T1, Tyrosinase (Agaricus bisporus, UniProt O42713).
T1 sequence (O42713 whole entry): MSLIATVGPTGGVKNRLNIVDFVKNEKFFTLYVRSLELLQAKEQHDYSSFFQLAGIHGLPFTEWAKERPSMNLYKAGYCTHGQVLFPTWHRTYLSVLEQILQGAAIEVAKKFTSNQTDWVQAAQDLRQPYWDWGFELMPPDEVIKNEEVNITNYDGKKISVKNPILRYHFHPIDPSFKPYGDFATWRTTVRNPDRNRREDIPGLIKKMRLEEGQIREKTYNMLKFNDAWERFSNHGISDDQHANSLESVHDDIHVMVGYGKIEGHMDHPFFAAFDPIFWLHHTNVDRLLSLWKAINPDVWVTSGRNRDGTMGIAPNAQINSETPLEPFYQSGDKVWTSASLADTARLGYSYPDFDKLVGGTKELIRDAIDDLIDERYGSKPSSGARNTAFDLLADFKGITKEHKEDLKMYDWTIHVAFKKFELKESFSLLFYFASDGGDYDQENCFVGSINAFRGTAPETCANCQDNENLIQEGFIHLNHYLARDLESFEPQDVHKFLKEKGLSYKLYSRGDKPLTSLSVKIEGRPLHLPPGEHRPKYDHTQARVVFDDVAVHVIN
In words: Inhibition of monophenolase activity of mushroom tyrosinase using L-tyrosine as substrate incubated for 10 mins by UV-Visible spectrophotometric analysis.

Data set [2] concerns the target T1, Tyrosinase. In words: Inhibition of diphenolase activity of mushroom tyrosinase using L-DOPA as substrate incubated for 10 mins by UV-Visible spectrophotometric analysis.
Data set [3] deals with T2, Tyrosinase (Agaricus bisporus) (UniProt O42713).
T2 sequence (whole entry): T1 sequence (O42713 whole entry)
Kind of data set: Reversible inhibition of diphenolase activity of mushroom tyrosinase using L-DOPA as substrate at 4.17 to 33.33 uM incubated for 10 mins by UV-Visible spectrophotometric analysis.

Data set [4] has as its target T1, Tyrosinase. In words: Inhibition of diphenolase activity of mushroom tyrosinase using L-DOPA as substrate assessed as enzyme-inhibitor complex incubated for 10 mins by Lineweaver-Burk plot method.
In data set [5] the target is T1, Tyrosinase. In words: Inhibition of diphenolase activity of mushroom tyrosinase using L-DOPA as substrate assessed as enzyme-substrate-inhibitor complex incubated for 10 mins by Lineweaver-Burk plot method.
The target of data set [6] is T2, Tyrosinase (Agaricus bisporus). In words: Competitive-uncompetitive-mixed type inhibition of diphenolase activity of mushroom tyrosinase using L-DOPA as substrate incubated for 10 mins by Lineweaver-Burk plot method.
A short description of data set [7]: Copper reducing activity in 0.4 mM cupric sulfate solution assessed as cuprous ion formation up to 0.15 mM after 10 mins by bathocuproinedisulfonic acid dye based spectrophotometric analysis. Format: physicochemical.
Data set [8] is described as follows: Copper chelating activity in pH 5 copper sulfate solution at 2.857 mM after 10 mins by tetramethylmurexide dye based assay relative to control. Format: physicochemical. Conditions: pH 5, 10 min, 2857 µM.
Data set [9] can be described thus: Copper chelating activity in pH 7.4 copper sulfate solution at 2.857 mM after 10 mins by tetramethylmurexide dye based assay relative to control. Format: physicochemical. Conditions: pH 7.4, 10 min, 2857 µM.

Activity calls are given as the source filed them. The calls are words filed in the database; no cut-off is given here.

As for `C[C@H](NC(=O)OCc1ccccc1)C(=O)OCc1cc(=O)c(O)c[nH]1`, the IC50 (usually the concentration needed to halve the response being measured) against Tyrosinase [1] amounted to 11.8 µM.
Same read-out and setting: next, `CC(C)[C@H](NC(=O)OCc1ccccc1)C(=O)OCc1cc(=O)c(O)c[nH]1`: 12.5 µM.
As for `O=C(N[C@@H](Cc1ccccc1)C(=O)OCc1cc(=O)c(O)c[nH]1)OCc1ccccc1`, the IC50 at Tyrosinase [1] was found to be 1.95 µM; at Tyrosinase [2], 8.97 µM. In addition, the inhibition result in data set [3] and in data set [6] was “Active” in each case. In addition, the results for the Ki on Tyrosinase [4] and at Tyrosinase [5] were 17.2 µM and 22.1 µM, respectively. Besides, the Activity result is given as “Active” in data set [7], 97.52% in data set [8] and 88.92% in data set [9].
Take `CC(C)C[C@H](NC(=O)OCc1ccccc1)C(=O)OCc1cc(=O)c(O)c[nH]1`: at Tyrosinase [1], 28.7 µM corresponded to half-maximal inhibition (IC50).
Same read-out and setting: next, `CC(C)C[C@H](NC(=O)[C@@H](N)Cc1ccccc1)C(=O)NCc1cc(=O)c(O)c[nH]1`: 6.93 µM.
At Tyrosinase [1], `CC(C)[C@H](NC(=O)[C@@H](N)Cc1ccccc1)C(=O)NCc1cc(=O)c(O)c[nH]1` yielded an IC50 of 14.3 µM.
As for `CC[C@H](C)[C@H](NC(=O)OCc1ccccc1)C(=O)OCc1cc(=O)c(O)c[nH]1`, at Tyrosinase [1], the IC50 was determined as 15.6 µM.
Regarding `N[C@@H](Cc1ccccc1)C(=O)N[C@@H](Cc1ccccc1)C(=O)NCc1cc(=O)c(O)c[nH]1`, the IC50 against Tyrosinase [1] worked out at 2.79 µM; against Tyrosinase [2], 26.2 µM. For the same molecule, the inhibition entry in [3] and in [6] was “Active” each time. Further, the Ki (commonly the dissociation constant of the complex between target and ligand, obtained from inhibition or displacement) came out at 34.4 µM at Tyrosinase [4] and 79 µM at Tyrosinase [5].

The values are drawn from ChEMBL document CHEMBL3808326, “Design and synthesis of novel hydroxypyridinone derivatives as potential tyrosinase inhibitors” (Bioorg Med Chem Lett, 2016).
